This test is described as follows: Diet induced metabolic syndrome model in SD rats (body weight, fat tissue weight, serum lipids). The note with it: end of 8 weeks treatment, Composition-1 250 mg/kg or sibutramine 7 mg/kg (FIG. 6A). Type of test: in vivo, Sprague Dawley Rats. As to the method:
The extracts of Holoptelea integrifolia were then combined with other herbal extracts and tested for their efficacy. […] The Metabolic syndrome was induced in Sprague Dawley Rats by feeding the rats high fat and high cholesterol diet containing roasted bengal gram, sucrose, milk powder, mineral salt mixture, yeast, butter, groundnut oil and cholesterol for 8 weeks. Following 8 weeks induction phase, the animals were treated daily either with 250 mg/kg body weight of composition-1 or 7 mg/kg body weight of sibutramine in 10 mL of 0.5% CMC for further 8 weeks. The control group of animals were received only the vehicle (10 mL of 0.5% CMC) during this period.
Animals were acclimatized for 7 days prior to study initiation. […]
Following 8 weeks induction phase, the animals were treated orally with 250 mg/kg body weight of Composition-1 or 7 mg/kg body weight of sibutramine in 10 mL of 0.5% CMC for further 8 weeks. […] Body weight of individual animal was recorded weekly in the entire duration of the study. […]
Various biochemical parameters including lipid profile were tested using biochemistry reagents supplied by Human, Germany, in an automated clinical chemistry analyzer HumaStar300, Make: Human, Germany. Mean values of the biochemical parameters estimated before induction, after induction/before treatment and after treatment were measured and compared.

As to `CC(C)CC(N(C)C)C1(c2ccc(Cl)cc2)CCC1` (stereo not shown) [Sibutramine], the serum cholesterol levels result is reported as “statistically significant reduction”.

Source of the values: patent US9345732B2, “Agents derived from Holoptelea integrifolia and their compositions for the control of metabolic syndrome and associated diseases” (Laila Nutraceuticals, priority 2009, dated 2016).
